Reference: ChEMBL document CHEMBL3621176, “Inhibitors of the Renal Outer Medullary Potassium Channel” (ACS Med Chem Lett, 2015)

Molecular target: T1, ATP-sensitive inward rectifier potassium channel 1 (Homo sapiens, UniProt P48048)
T1 sequence (P48048 whole entry): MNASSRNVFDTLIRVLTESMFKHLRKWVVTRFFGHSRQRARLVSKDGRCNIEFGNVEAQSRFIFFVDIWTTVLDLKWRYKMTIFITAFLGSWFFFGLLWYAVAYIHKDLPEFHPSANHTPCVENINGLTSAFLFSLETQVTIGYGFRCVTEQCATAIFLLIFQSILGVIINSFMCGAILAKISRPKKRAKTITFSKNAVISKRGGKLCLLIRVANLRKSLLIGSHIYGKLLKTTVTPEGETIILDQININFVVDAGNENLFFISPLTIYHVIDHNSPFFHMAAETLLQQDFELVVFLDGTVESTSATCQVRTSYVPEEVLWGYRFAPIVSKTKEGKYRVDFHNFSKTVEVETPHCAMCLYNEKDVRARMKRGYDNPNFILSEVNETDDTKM
Test: Inhibition of human Kir1.1 expressed in HEK293 cells by thallium flux assay
Format: cell-based

Structure (SMILES)	IC50 [nM]
Cc1c([C@@H](O)CN2CCC3(CC2)CCN(c2ccc(C#N)cc2)C3)ccc2c1COC2=O	15
Cc1c([C@@H](N)CN2CCC3(CC2)CC(=O)N(c2ccc(C#N)cn2)C3)ccc2c1COC2=O	14
Cc1c([C@@H](O)CN2CCC3(CC2)CCN(c2ncc(C#N)cn2)CC3)ccc2c1COC2=O	14
Cc1c([C@@H](O)CN2CCC3(CC2)CCN(c2cnc(C#N)cn2)CC3)ccc2c1COC2=O	9
Cc1c([C@@H](O)CN2CCC3(CC2)CCN(c2ccc(C#N)nn2)CC3)ccc2c1COC2=O	13

The next lines start with the values.

IC50 [nM]	Structure (SMILES)
14	Cc1nc(N2CCC3(CCN(C[C@H](O)c4ccc5c(c4C)COC5=O)CC3)C2)ccc1C#N
17	Cc1cc(N2CCC3(CCN(C[C@H](O)c4ccc5c(c4C)COC5=O)CC3)C2)ncc1C#N
20	Cc1cc(C#N)cnc1N1CCC2(CCN(C[C@H](O)c3ccc4c(c3C)COC4=O)CC2)C1
